According to patent US20240342292A1, “Compounds for the Degradation of EGFR Kinase” (BeiGene Switzerland GmbH, priority 2021, published 2024):

Legend:
L858R/T790M/C797S EGFR = molecular target: T1, L858R/T790M/C797S EGFR (Homo sapiens, UniProt P00533, C797S/L858R/T790M); assay: EGFR degradation HTRF assay in H1975-clone #25 (LTC) cells; assay type: cell-based; details: 16h treatment; for DC50: H1975 # 25-LTC (L858R/T790M/C797S), HTRF; for Dmax: NCI-H1975, H1975 # 25-LTC (L858R/T790M/C797S), maximum percentage of degradation
T1 construct: expressed in transfected cells; host or cells: H1975 clone #25 (lentiviral over-expression, endogenous EGFR knocked out by sgRNA)
T1 sequence (P00533 25-1210 T790M/C797S/L858R): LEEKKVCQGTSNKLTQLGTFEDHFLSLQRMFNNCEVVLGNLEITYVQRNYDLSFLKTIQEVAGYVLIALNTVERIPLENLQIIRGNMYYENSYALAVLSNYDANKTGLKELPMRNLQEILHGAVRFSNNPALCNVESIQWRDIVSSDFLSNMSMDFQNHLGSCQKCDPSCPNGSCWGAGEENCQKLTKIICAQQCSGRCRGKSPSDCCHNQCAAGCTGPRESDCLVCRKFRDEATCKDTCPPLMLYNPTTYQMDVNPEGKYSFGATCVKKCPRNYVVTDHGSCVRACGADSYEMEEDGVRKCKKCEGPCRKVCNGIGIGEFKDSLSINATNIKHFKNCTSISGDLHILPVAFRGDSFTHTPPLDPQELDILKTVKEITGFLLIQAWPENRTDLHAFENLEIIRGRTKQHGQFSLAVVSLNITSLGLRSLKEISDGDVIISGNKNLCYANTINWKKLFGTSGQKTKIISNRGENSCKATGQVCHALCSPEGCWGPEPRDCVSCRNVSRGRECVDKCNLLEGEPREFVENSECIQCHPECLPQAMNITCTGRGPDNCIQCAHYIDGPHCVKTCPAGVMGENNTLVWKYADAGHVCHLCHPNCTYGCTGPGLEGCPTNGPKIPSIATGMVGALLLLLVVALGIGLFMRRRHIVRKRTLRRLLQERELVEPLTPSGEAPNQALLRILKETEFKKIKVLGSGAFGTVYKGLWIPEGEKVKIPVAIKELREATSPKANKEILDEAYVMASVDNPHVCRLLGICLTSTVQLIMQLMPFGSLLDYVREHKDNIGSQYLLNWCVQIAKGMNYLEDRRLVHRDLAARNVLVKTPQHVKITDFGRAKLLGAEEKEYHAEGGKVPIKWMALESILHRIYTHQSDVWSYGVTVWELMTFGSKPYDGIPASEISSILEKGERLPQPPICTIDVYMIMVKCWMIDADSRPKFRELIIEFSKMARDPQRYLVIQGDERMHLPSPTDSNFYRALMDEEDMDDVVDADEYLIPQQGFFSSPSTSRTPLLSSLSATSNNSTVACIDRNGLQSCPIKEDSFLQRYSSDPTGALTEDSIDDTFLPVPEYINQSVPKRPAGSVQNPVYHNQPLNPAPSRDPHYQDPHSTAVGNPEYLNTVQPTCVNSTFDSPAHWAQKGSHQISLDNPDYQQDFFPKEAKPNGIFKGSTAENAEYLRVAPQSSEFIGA
In short: (§1)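 H1975 clones stably overexpressing mutant EGFR by lentivirus, with endogenous EGFR knocked out by sgRNA and homozygosity confirmed by sequencing, were treated 16 h at 37 °C with compounds in 0.2% DMSO medium, 8 doses from 10 uM in 5-fold dilution. Lysates were read by HTRF (665/620 nm); DC50 came from a four-parameter fit.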

Del19/T790M/C797S EGFR = assay: EGFR degradation HTRF assay in H1975-clone #28 (DTC) cells; assay type: cell-based; details: H1975 # 28 DTC (Del19/T790M/C797S), 16h treatment; for DC50: HTRF; for Dmax (%): maximum percentage of degradation
In short: as §1

SMILES	DC50 (L858R/T790M/C797S EGFR) [nM]	Dmax (L858R/T790M/C797S EGFR) [%]	DC50 (Del19/T790M/C797S EGFR) [nM]	Dmax (%) (Del19/T790M/C797S EGFR)
Cc1cc2cc(n1)-c1cnn(C)c1OCCC[C@@H](C)CN1/C(=N/C2=O)Nc2ccc(N3CCN(CC4CN(c5cc(F)c([C@H]6CCC(=O)NC6=O)c(F)c5)C4)[C@@H](C#N)C3)cc21 [Example 423, (R)-1-((1-(4-((R)-2,6-dioxopiperidin-3-yl)-3,5-difluorophenyl)azetidin-3-yl)methyl)-4-((R,E)-1^1,2^6,7-trimethyl-3-oxo-5^2,5^3-dihydro-1^1H,5^1H-1l-oxa-4-aza-5(2,1)-benzo[d]imidazola-2(2,4)-pyridina-1(4,5)-pyrazolacycloundecaphane-5^6-yl)piperazine-2-carbonitrile]	1.41	78.8	0.655	67.20
Cc1cc2cc(n1)-c1cnn(C)c1OCCC[C@@H](C)CN1/C(=N/C2=O)Nc2ccc(N3CCN(C4CCN(c5cc(F)c([C@H]6CCC(=O)NC6=O)c(F)c5)CC4)C(=O)C3)cc21 [Example 425, (R)-3-(2,6-difluoro-4-(4-(2-oxo-4-((R,E)-1^1,2^6,7-trimethyl-3-oxo-5^2,5^3-dihydro-1^1H,5^1H-11-oxa-4-aza-5(2,1)-benzo[d]imidazola-2(2,4)-pyridina-1(4,5)-pyrazolacycloundecaphane-5^6-yl)piperazin-1-yl)piperidin-1-yl)phenyl)piperidine-2,6-dione]	0.73	92.7	0.957	83.85
Cc1cc2cc(n1)-c1cnn(C)c1OCCC[C@@H](C)CN1/C(=N/C2=O)Nc2ccc(N3CCN(CCC4CCN(c5cc(F)c([C@H]6CCC(=O)NC6=O)c(F)c5)CC4)CC3=O)cc21 [Example 437, (R)-3-(2,6-difluoro-4-(4-(2-(3-oxo-4-((R,E)-1^1,2^6,7-trimethyl-3-oxo-5^2,5^3-dihydro-1^1H,5^1H-11-oxa-4-aza-5(2,1)-benzo[d]imidazola-2(2,4)-pyridina-1(4,5)-pyrazolacycloundecaphane-5^6-yl)piperazin-1-yl)ethyl)piperidin-1-yl)phenyl)piperidine-2,6-dione]	1.01	91	0.534	88.76
Cc1cc2cc(n1)-c1cnn(C)c1OCCC[C@@H](C)CN1/C(=N/C2=O)Nc2ccc(N(C)C3CN(C4CCN(c5cc(F)c([C@H]6CCC(=O)NC6=O)c(F)c5)CC4)C3)cc21 [Example 438, (R)-3-(2,6-difluoro-4-(4-(3-(methyl((R,E)-1^1,2^6,7-trimethyl-3-oxo-5^2,5^3-dihydro-1^1H,5^1H-11-oxa-4-aza-5(2,1)-benzo[d]imidazola-2(2,4)-pyridina-1(4,5)-pyrazolacycloundecaphane-5^6-yl)amino)azetidin-1-yl)piperidin-1-yl)phenyl)piperidine-2,6-dione]	0.964	85.6	0.983	72.51
Cc1cc2cc(n1)-c1cnn(C)c1OCCC[C@@H](C)CN1/C(=N/C2=O)Nc2ccc(C(=O)N(C)C3CCN(CCc4cc(F)c([C@H]5CCC(=O)NC5=O)c(F)c4)CC3(C)C)cc21 (stereo partly drawn) [Example 439, (R,E)-N—((S)-1-(4-((R)-2,6-dioxopiperidin-3-yl)-3,5-difluorophenethyl)-3,3-dimethylpiperidin-4-yl)-N,1^1,2^6,7-tetramethyl-3-oxo-5^2,5^3-dihydro-1^1H,5^1H-11-oxa-4-aza-5(2,1)-benzo[d]imidazola-2(2,4)-pyridina-1(4,5)-pyrazolacycloundecaphane-5^6-carboxamide]	1.4	87.3	1.52	76.03
Cc1cc2cc(n1)-c1cnn(C)c1OCCC[C@@H](C)CN1/C(=N/C2=O)Nc2ccc(N3CCN([C@H]4CCN(c5ccc([C@H]6CCC(=O)NC6=O)nc5C)C[C@@H]4F)CC3)cc21 [Example 440, (R)-3-(5-((3S,4S)-3-fluoro-4-(4-((R,L)-1^1,2^6,7-trimethyl-3-oxo-5^2,5′-dihydro-1^1H,5^1H-11-oxa-4-aza-5(2,1)-benzo[d]imidazola-2(2,4)-pyridina-1(4,5)-pyrazolacycloundecaphane-5^6-yl)piperazin-1-yl)piperidin-1-yl)-6-methylpyridin-2-yl)piperidine-2,6-dione]	0.936	93.5	0.884	85.39
Cc1cc2cc(n1)-c1cnn(C)c1OCC[C@@H]1C[C@H]1CN1/C(=N/C2=O)Nc2ccc(N3CCN(C4CCN(c5cc(F)c([C@H]6CCC(=O)NC6=O)c(F)c5)CC4)CC3)cc21 [Example 441, (R)-3-(4-(4-(4-((7′R,7^2S,E)-1^1,2^6-dimethyl-3-oxo-5^2,5^3-dihydro-1^1H,5^1H-10-oxa-4-aza-5(2,1)-benzo[d]imidazola-2(2,4)-pyridina-1(4,5)-pyrazola-7(1,2)-cyclopropanacyclodecaphane-5^6-yl)piperazin-1-yl)piperidin-1-yl)-2,6-difluorophenyl)piperidine-2,6-dione]	0.857	89.2	0.643	89.27
Cc1cc2cc(n1)-c1cnn(C)c1OCCC[C@@H](C)CN1/C(=N/C2=O)Nc2ccc(N3CCN(CCNc4cc(F)c([C@H]5CCC(=O)NC5=O)c(F)c4)[C@H](CC#N)C3)cc21 [Example 442, 2-((R)-1-(2-((4-((R)-2,6-dioxopiperidin-3-yl)-3,5-difluorophenyl)amino)ethyl)-4-((R,E)-1^1,2^6,7-trimethyl-3-oxo-5^2,5^3-dihydro-1^1H,5^1H-11-oxa-4-aza-5(2,1)-benzo[d]imidazola-2(2,4)-pyridina-1(4,5)-pyrazolacycloundecaphane-5^6-yl)piperazin-2-yl)acetonitrile]	0.742	84.4	0.721	70.20

The next molecules have a lower DC50 (L858R/T790M/C797S EGFR) than those just listed; values first:

DC50 (L858R/T790M/C797S EGFR) [nM]	Dmax (L858R/T790M/C797S EGFR) [%]	DC50 (Del19/T790M/C797S EGFR) [nM]	SMILES	Dmax (%) (Del19/T790M/C797S EGFR)
0.696	91.8	1.19	Cc1cc2cc(n1)-c1cnn(C)c1OCCC[C@@H](C)CN1/C(=N/C2=O)Nc2ccc(CCN3CCN(c4cc(F)c([C@H]5CCC(=O)NC5=O)c(F)c4)CC3)cc21 [Example 446, (R)-3-(2,6-difluoro-4-(4-(2-((R,E)-1^1,2^6,7-trimethyl-3-oxo-5^2,5^3-dihydro-1^1H,5^1H-11-oxa-4-aza-5(2,1)-benzo[d]imidazola-2(2,4)-pyridina-1(4,5)-pyrazolacycloundecaphane-5^6-yl)ethyl)piperazin-1-yl)phenyl)piperidine-2,6-dione]	76.42
0.678	88.7	0.647	Cc1cc2cc(n1)-c1cnn(C)c1OCCC[C@@H](C)CN1/C(=N/C2=O)Nc2ccc(N3CCC(N4CCN(c5cc(F)c([C@H]6CCC(=O)NC6=O)c(F)c5)CC4=O)CC3)cc21 [Example 450, (R)-3-(2,6-difluoro-4-(3-oxo-4-(1-((R,E)-1^1,2^6,7-trimethyl-3-oxo-5^2,5^3-dihydro-1^1H,5^1H-11-oxa-4-aza-5(2,1)-benzo[d]imidazola-2(2,4)-pyridina-1(4,5)-pyrazolacycloundecaphane-5^6-yl)piperidin-4-yl)piperazin-1-yl)phenyl)piperidine-2,6-dione]	83.01
0.652	84.2	0.645	Cc1cc2cc(n1)-c1cnn(C)c1OCCC[C@@H](C)CN1/C(=N/C2=O)Nc2ccc(N3CCN(C4CCN(c5cc(F)c([C@H]6CCC(=O)NC6=O)c(F)c5)CC4)[C@H](CO)C3)cc21 [Example 447, (R)-3-(2,6-difluoro-4-(4-((S)-2-(hydroxymethyl)-4-((R,E)-1^1,2^6,7-trimethyl-3-oxo-5^2,5^3-dihydro-1^1H,5^1H-11-oxa-4-aza-5(2,1)-benzo[d]imidazola-2(2,4)-pyridina-1(4,5)-pyrazolacycloundecaphane-5^6-yl)piperazin-1-yl)piperidin-1-yl)phenyl)piperidine-2,6-dione]	76.31
0.559	84.5	2.14	Cc1cc2cc(n1)-c1cnn(C)c1OCCC[C@@H](C)CN1/C(=N/C2=O)Nc2ccc(N3CCN([C@H]4C[C@@H](Nc5cc(F)c([C@H]6CCC(=O)NC6=O)c(F)c5)C4)CC3)cc21 [Example 445, (R)-3-(2,6-difluoro-4-(((1 S,3S)-3-(4-((R,E)-1^1,2^6,7-trimethyl-3-oxo-5^2,5^3-dihydro-1^1H,5^1H-11-oxa-4-aza-5(2,1)-benzo[d]imidazola-2(2,4)-pyridina-1(4,5)-pyrazolacycloundecaphane-5^6-yl)piperazin-1-yl)cyclobutyl)amino)phenyl)piperidine-2,6-dione]	74.88
0.237	92.3	0.584	Cc1cc2cc(n1)-c1cnn(C)c1OCCC[C@@H](C)CN1/C(=N/C2=O)Nc2ccc(N3CC[C@@H](N4CCN(c5cc(F)c([C@H]6CCC(=O)NC6=O)c(F)c5)CC4)CC3=O)cc21 [Example 448, (R)-3-(2,6-difluoro-4-(4-((R)-2-oxo-1-((R,E)-1^1,2^6,7-trimethyl-3-oxo-5^2,5^3-dihydro-1^1H,5^1H-11-oxa-4-aza-5(2,1)-benzo[d]imidazola-2(2,4)-pyridina-1(4,5)-pyrazolacycloundecaphane-5^6-yl)piperidin-4-yl)piperazin-1-yl)phenyl)piperidine-2,6-dione]	88.36
